34 molecules from patent publication US20190134005A1 (BioMarin Pharmaceutical Inc., priority 2016, published 2019) can be followed below.

The first assay deals with T1, human CGT (Homo sapiens, UniProt Q16880).
T1 sequence (Q16880 21-541): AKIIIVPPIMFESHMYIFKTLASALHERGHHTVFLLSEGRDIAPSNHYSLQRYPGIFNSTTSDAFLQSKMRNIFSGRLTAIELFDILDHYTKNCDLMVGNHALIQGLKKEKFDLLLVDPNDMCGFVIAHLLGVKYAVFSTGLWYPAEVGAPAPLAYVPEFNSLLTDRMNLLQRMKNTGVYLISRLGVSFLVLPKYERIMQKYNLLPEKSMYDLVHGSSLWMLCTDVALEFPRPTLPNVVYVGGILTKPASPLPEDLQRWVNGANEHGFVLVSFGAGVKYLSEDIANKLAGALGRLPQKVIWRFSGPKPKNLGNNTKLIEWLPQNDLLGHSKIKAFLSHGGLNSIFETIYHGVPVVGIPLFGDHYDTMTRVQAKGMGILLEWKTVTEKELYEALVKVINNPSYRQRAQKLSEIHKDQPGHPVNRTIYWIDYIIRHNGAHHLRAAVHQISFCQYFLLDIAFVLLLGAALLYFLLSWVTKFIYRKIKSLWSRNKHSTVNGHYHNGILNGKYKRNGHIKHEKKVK
Briefly: Assay 1: CGT Enzymatic Assay (RapidFire/MS/MS, 0.01% Tween 80). It is filed as biochemical. To be noted: Table 1, Compounds of Formula (I) and Formula (II); CGT enzymatic assay, C6-NBD-dihydro-galactosylceramide readout; read-out: IC50.
The IC50 is the midpoint of a concentration-inhibition curve. Turning to `CC[C@]1(C)N(c2ccc(C#N)cc2)C(=O)N(c2ccc(C#N)cc2)C1(O)c1cccc(OC(F)(F)F)c1` (stereo partly drawn) [Example 319-2, 4′-((4S)-4-ethyl-5-hydroxy-4-methyl-2-oxo-5-(3-(trifluoromethoxy)phenyl)imidazolidine-1,3-diyl)dibenzonitrile], the IC50 was less than 1 µM.
Turning to `COC[C@]1(C)N(c2ccc(Cl)cc2)C(=O)N(c2ccc(Cl)cc2)[C@@]1(O)c1cccc(OC(F)(F)F)c1` [Compound 296-3, (4R,5S)-1,3-bis(4-chlorophenyl)-4-hydroxy-5-(methoxymethyl)-5-methyl-4-(3-(trifluoromethoxy)phenyl)imidazolidin-2-one], the IC50 was in the range of 1 to 10 µM.
`CCCC1(C)N(c2ccc(Cl)cc2)C(=O)N(c2ccc(Cl)cc2)C1(O)c1cccc(C#N)c1` (stereo not shown) [Compound 291, 3-(1,3-bis(4-chlorophenyl)-4-hydroxy-5-methyl-2-oxo-5-propylimidazolidin-4-yl)benzonitrile]: the 50% inhibitory concentration (IC50) was less than 1 µM.
Take `Cc1ccc(N2C(=O)N(c3ccc(C#N)cc3)C(C)(C)C2(O)c2cccc(C#N)c2)cc1` (stereo not shown) [Compound 270, 3-(1-(4-cyanophenyl)-4-hydroxy-5,5-dimethyl-2-oxo-3-(p-tolyl)imidazolidin-4-yl)benzonitrile]: the IC50 was less than 1 µM.
With `Cc1ccc(N2C(=O)N(c3ccc(C#N)cc3)C(C)(C)C2(O)c2cccc(OC(F)(F)F)c2)cc1` (stereo not shown) [Example 312, 4-(4-hydroxy-5,5-dimethyl-2-oxo-3-(p-tolyl)-4-(3-(trifluoromethoxy)phenyl)imidazolidin-1-yl)benzonitrile], the half-maximal inhibitory concentration (IC50) is less than 1 µM.
In the case of `CC1(C)N(c2ccc(C#N)cc2)C(=O)N(c2ccc(Cl)cc2)C1(O)c1cccc(OC(F)(F)F)c1` (stereo not shown) [Example 322, 4-(3-(4-chlorophenyl)-4-hydroxy-5,5-dimethyl-2-oxo-4-(3-(trifluoromethoxy)phenyl)imidazolidin-1-yl)benzonitrile], the 50% inhibitory concentration (IC50) was less than 1 µM.
Take `Cc1ccc(N2C(=O)N(c3ccc(Cl)cc3)C(O)(c3cccc(OC(F)(F)F)c3)C23CCC3)cc1` (stereo not shown) [Example 315, 7-(4-chlorophenyl)-8-hydroxy-5-(p-tolyl)-8-(3-(trifluoromethoxy)phenyl)-5,7-diazaspiro[3.4]octan-6-one]: the half-inhibitory concentration (IC50) was less than 1 µM.
Consider `COCC1(C)N(c2ccc(Cl)cc2)C(=O)N(c2ccc(Cl)cc2)C1(O)c1cccc(C#N)c1` (stereo not shown) [Compound 297, 3-(1,3-bis(4-chlorophenyl)-4-hydroxy-5-(methoxymethyl)-5-methyl-2-oxoimidazolidin-4-yl)benzonitrile], for which the IC50 is less than 1 µM.
On to `N#Cc1ccc(N2C(=O)N(c3ccccc3)C(O)(c3cccc(OC(F)(F)F)c3)C23CCC3)cc1` (stereo not shown) [Example 336, 4-(8-hydroxy-6-oxo-7-phenyl-8-(3-(trifluoromethoxy)phenyl)-5,7-diazaspiro[3.4]octan-5-yl)benzonitrile], for which the IC50 was less than 1 µM.
As to `Cc1ccc(N2C(=O)N(c3ccc(C#N)cc3)C(O)(c3cccc(C#N)c3)C23COC3)cc1` (stereo not shown) [Example 308, 3-(7-(4-cyanophenyl)-8-hydroxy-6-oxo-5-(p-tolyl)-2-oxa-5,7-diazaspiro[3.4]octan-8-yl)benzonitrile], the concentration for half-maximal inhibition (IC50) is less than 1 µM.
For the molecule `CC1(C)N(c2ccc(C#N)cc2)C(=O)N(c2ccc(Cl)cc2)C1(O)c1cccc(C#N)c1` (stereo not shown) [Example 309, 3-(3-(4-chlorophenyl)-1-(4-cyanophenyl)-4-hydroxy-5,5-dimethyl-2-oxoimidazolidin-4-yl)benzonitrile], the concentration for half-maximal inhibition (IC50) was less than 1 µM.

The assay is the same for the next values; noted with them: Table 1, Compounds of Formula (I) and Formula (II); CGT enzymatic assay; read-out: IC50.
Regarding `CCC[C@@H]1N(c2ccc(Br)cc2)C(=O)N(c2ccc(Br)cc2)C1(O)c1cccc(C)c1` (stereo partly drawn) [Compound 96-1, (5S)-1,3-bis(4-bromophenyl)-4-hydroxy-5-propyl-4-(m-tolyl)imidazolidin-2-one], the half-inhibitory concentration (IC50) was less than 1 µM.
On the same count and under the same terms, under `C[C@@H]1N(c2ccc(Br)cc2)C(=O)N(c2ccc(Br)cc2)C1(O)c1cccs1` (stereo partly shown) [Example 49-1] stands 1 to 10 µM.
`C#Cc1cccc(C2(O)[C@H](C)N(c3ccc(Cl)cc3)C(=O)N2c2ccc(Cl)cc2)c1` (stereo partly drawn) [Compound 93-1, (5S)-1,3-bis(4-chlorophenyl)-4-(3-ethynylphenyl)-4-hydroxy-5-methylimidazolidin-2-one]: the IC50 was less than 1 µM.
As to `O=C1N(c2ccc(Br)cc2)C(=O)C(O)(c2ccc(OCC3CC3)cc2)N1c1ccc(Br)cc1` (stereo not shown) [Example 184, 1,3-bis(4-bromophenyl)-5-(4-(cyclopropylmethoxy)phenyl)-5-hydroxyimidazolidine-2,4-dione], the IC50 is more than 50 µM.
On the same count and under the same terms, then `COC[C@H]1N(c2ccc(Cl)cc2)C(=O)N(c2ccc(Cl)cc2)C1(O)c1cccc(C(F)(F)F)c1` (stereo partly drawn) [Compound 92-2, (5R)-1,3-bis(4-chlorophenyl)-4-hydroxy-5-(methoxymethyl)-4-(3-(trifluoromethyl)phenyl)imidazolidin-2-one], with less than 1 µM.
As to `Cc1cccc(C2(O)CN(c3ccc(Cl)cc3)C(=O)N2c2ccc(Cl)cc2)c1` (stereo not shown) [Example 34, 1,3-bis(4-chlorophenyl)-4-hydroxy-4-(m-tolyl)imidazolidin-2-one], the IC50 is 1 to 10 µM.
Same read-out and setting: under `O=C1N(c2ccc(Cl)cc2)CC(O)(c2cccc(F)c2)N1c1ccc(Cl)cc1` (stereo not shown) [Compound 64, 1,3-bis(4-chlorophenyl)-4-(3-fluorophenyl)-4-hydroxyimidazolidin-2-one] stands 1 to 10 µM.
As for `Cc1cccc(C2(O)[C@H](C)N(c3ccc(Br)cc3)C(=O)N2c2ccc(Br)cc2)c1` (stereo partly shown) [Example 29-1], the concentration for half-maximal inhibition (IC50) was less than 1 µM.
For the molecule `Cc1ccc(N2C(=O)N(c3ccc(C)cc3)C(O)(c3cccc(OC(F)(F)F)c3)[C@@H]2C(C)C)cc1` (single isomer, unassigned) [Compound 235-1], the IC50 is less than 1 µM.
Consider `CCC1N(c2ccc(F)cc2)C(=O)N(c2ccc(F)cc2)C1(O)c1cccc(C(F)(F)F)c1` (stereo not shown) [Compound 139, 5-ethyl-1,3-bis(4-fluorophenyl)-4-hydroxy-4-(3-(trifluoromethyl)phenyl)imidazolidin-2-one], for which the IC50 lay in the range of 1 to 10 µM.
As to `O=C1N(c2ccc(Cl)cc2)CC(O)(c2ccccc2)N1c1ccc(Br)cc1` (stereo not shown) [Example 38, 3-(4-bromophenyl)-1-(4-chlorophenyl)-4-hydroxy-4-phenylimidazolidin-2-one], the IC50 fell in the range of 10 to 50 µM.
On to `O=C1N(c2ccc(Cl)cc2)C2(CC(F)C2)C(O)(c2cccc(OC(F)(F)F)c2)N1c1ccc(Cl)cc1` (stereo not shown) [Compound 240, 5,7-bis(4-chlorophenyl)-2-fluoro-8-hydroxy-8-(3-(trifluoromethoxy)phenyl)-5,7-diazaspiro[3.4]octan-6-one], for which the IC50 was less than 1 µM.
As for `CC#Cc1cccc(C2(O)[C@@H](C)N(c3ccc(Cl)cc3)C(=O)N2c2ccc(Cl)cc2)c1` (stereo partly drawn) [Compound 103-2, (5R)-1,3-bis(4-chlorophenyl)-4-hydroxy-5-methyl-4-(3-(prop-1-yn-1-yl)phenyl)imidazolidin-2-one], the IC50 is less than 1 µM.
Regarding `C[C@@H]1N(c2ccc(Cl)cc2)C(=O)N(c2ccc(Cl)cc2)C1(O)c1cccc(C(C)(C)O)c1` (stereo partly drawn) [Compound 140-1, (5S)-1,3-bis(4-chlorophenyl)-4-hydroxy-4-(3-(2-hydroxypropan-2-yl)phenyl)-5-methylimidazolidin-2-one], the IC50 was more than 50 µM.
`COc1cccc(C2(O)CN(c3ccc(Br)cc3)C(=O)N2c2ccc(Br)cc2)c1` (stereo not shown) [Example 30, 1,3-bis(4-bromophenyl)-4-hydroxy-4-(3-methoxyphenyl)imidazolidin-2-one]: the 50% inhibitory concentration (IC50) was 1 to 10 µM.
`Cc1ccc(N2C(=O)N(c3ccc(C)cc3)C(O)(c3cccc(C#N)c3)[C@H]2C)cc1` (single isomer, unassigned) [Compound 105-2]: the half-maximal inhibitory concentration (IC50) was less than 1 µM.
With `O=C1N(c2ccc(Cl)cc2)C2(CC2)C(O)(c2cccc(O)c2)N1c1ccc(Cl)cc1` (stereo not shown) [Example 227, 4,6-bis(4-chlorophenyl)-7-hydroxy-7-(3-hydroxyphenyl)-4,6-diazaspiro[2.4]heptan-5-one], the IC50 is 1 to 10 µM.
Turning to `O=C1N(c2ccc(Br)cc2)CC(O)(c2ccc(Cl)cc2)N1c1ccc(Br)cc1` (stereo not shown) [Example 19, 1,3-bis(4-bromophenyl)-4-(4-chlorophenyl)-4-hydroxyimidazolidin-2-one], the IC50 lay within 10 to 50 µM.
Still for that read-out and setting: then `CCc1cccc(C2(O)[C@H](C)N(c3ccc(Cl)cc3)C(=O)N2c2ccc(Cl)cc2)c1` (stereo partly drawn) [Compound 69-1, (5S)-1,3-bis(4-chlorophenyl)-4-(3-ethylphenyl)-4-hydroxy-5-methylimidazolidin-2-one], with less than 1 µM.
Still for that read-out and setting: then `N#Cc1cccc(C2(O)N(c3ccc(Cl)cc3)C(=O)N(c3ccc(Cl)cc3)C23CCC3)c1` (stereo not shown) [Compound 72, 3-(5,7-bis(4-chlorophenyl)-8-hydroxy-6-oxo-5,7-diazaspiro[3.4]octan-8-yl)benzonitrile], with less than 1 µM.
Take `Cc1cccc(C2(O)[C@@H](C)N(c3ccc(Cl)cc3)C(=O)N2c2ccc(Cl)cc2)c1` (stereo partly shown) [Example 36-2]: the IC50 was in the range of 1 to 10 µM.
`O=C1N(c2ccc(Cl)cc2)CC(O)(c2cc(Cl)cc(Br)c2)N1c1ccc(Cl)cc1` (stereo not shown) [Compound 98, 4-(3-bromo-5-chlorophenyl)-1,3-bis(4-chlorophenyl)-4-hydroxyimidazolidin-2-one]: the IC50 lay in the range of 1 to 10 µM.
The same measure, in the same setting: under `CCC[C@@H]1N(c2ccc(Cl)cc2)C(=O)N(c2ccc(Cl)cc2)C1(O)c1cccc(C#N)c1` (single isomer, unassigned) [Compound 101-1] stands less than 1 µM.
